Measured values published in patent US8153817B2, “Synthesis of methyl nonactate derivatives” (Ohio University, priority 2006, dated 2012).
Values after ≈ are worked out from the molar mass of the structure shown.

Each molecule was assayed on B. subtilis (assay: MIC screen against B. subtilis). Conditions: Bacillus subtilis; B. subtilis (gram positive); read-out: MIC against B. subtilis.
Format: cell-based
Protocol: In comparison ampicillin, which is an antibiotic in wide therapeutic use, has an MIC of 100 μM in this screen.

SMILES | MIC [µM]
CC1(C)S[C@@H]2[C@H](NC(=O)[C@H](N)c3ccccc3)C(=O)N2[C@H]1C(=O)O [ampicillin, reference compound] | 100 (≈ 34.9 µg/mL)

Same assay, conditions: Bacillus subtilis; Table 1, selected triazoloamides, B. subtilis; read-out: MIC

SMILES | MIC [µM]
C[C@H](C(=O)NCCc1ccccc1)[C@@H]1CC[C@H](C[C@@H](C)n2cc(-c3ccccc3)nn2)O1 | 250 (≈ 108 µg/mL)
C[C@H](C(=O)Nc1ccccc1)[C@@H]1CC[C@H](C[C@@H](C)n2cc(CN3CCC(c4ccccc4)CC3)nn2)O1 | 500 (≈ 251 µg/mL)
C[C@@H](C(=O)N(C)Cc1ccccc1)[C@H]1CC[C@@H](C[C@H](C)n2cc(CN3CCN(c4ccccc4)CC3)nn2)O1 | 1000 (≈ 531 µg/mL)
COc1ccc(CNC(=O)[C@@H](C)[C@@H]2CC[C@H](C[C@@H](C)n3cc(CN4CCC(c5ccccc5)CC4)nn3)O2)cc1 | 1000 (≈ 546 µg/mL)
COc1ccc(NC(=O)[C@@H](C)[C@@H]2CC[C@H](C[C@@H](C)n3cc(-c4ccccc4)nn3)O2)cc1 | 1000 (≈ 435 µg/mL)
C[C@H](C(=O)NC1CCCC1)[C@@H]1CC[C@H](C[C@@H](C)n2cc(CN3CCN(c4ccccc4)CC3)nn2)O1 | 2000 (≈ 989 µg/mL)
C[C@H](C(=O)N1CCOCC1)[C@@H]1CC[C@H](C[C@@H](C)n2cc(CN3CCN(c4ccccc4)CC3)nn2)O1 | 2000 (≈ 993 µg/mL)
C[C@H](C(=O)NC1CCCCC1)[C@@H]1CC[C@H](C[C@@H](C)n2cc(CN3CCN(c4ccccc4)CC3)nn2)O1 | 2000 (≈ 1020 µg/mL)
C[C@H](C(=O)N(C)C)[C@@H]1CC[C@H](C[C@@H](C)n2cc(-c3ccccc3)nn2)O1 | 4000 (≈ 1430 µg/mL)
C[C@H](C(=O)N1CCN(c2ccccc2)CC1)[C@@H]1CC[C@H](C[C@@H](C)n2cc(CN3CCN(c4ccccc4)CC3)nn2)O1 | 4000 (≈ 2290 µg/mL)
